# Residues, ends and D or L forms follow the SMILES beside them.
# How the values were obtained:
# GABARAPL2 [1] = molecular target: T1, GABARAPL2 (Homo sapiens, UniProt P60520); experiment: FP displacement assay, GABARAPL2; format: binding; conditions: read-out: KD values ± SEM
# T1 construct: GABARAPL2_ATG8__P60520_2_115; GST (cleaved yes); made in house; host or cells: Escherichia coli BL21-Gold(DE3)
# Method: (§1) FP experiments were performed as described previously (Kliche et al, [2021]). Shortly, in order to monitor the binding event, FITC‐labelled peptides were used (excitation 495 nm, emission: 535 nm) and the FP signal was recorded in mP on a SpectraMax iD5 Multi‐Mode Microplate Reader (Molecular Devices) by measuring the emitted light in two angels. The measurements were performed at room temperature and prepared in nonbinding black half area 96‐well microplates (Corning®; 50 μl/well). For measuring direct binding, that is saturation curves, a 1:1 dilution series of protein domain (25 μl/well) was generated in 50 mM sodium phosphate buffer pH 7.4 and the measurement performed with 5 nM FITC‐labelled peptide (25 μl/well). The buffer‐corrected values were subsequently plotted with PRISM and fitted to the quadratic equation (Gianni et al, [2005]).
# (§2) The 1:1 dilution series in this experiment was performed with the unlabelled peptide in 50 mM sodium phosphate buffer pH 7.4, so that each well‐contained unlabelled peptide (25 μl) at a certain concentration and pre‐formed complex (25 μl). The KD values of this indirectly monitored binding event were calculated as described previously (Nikolovska‐Coleska et al, [2004]). All measurements were at least in technical triplicates as well as biological duplicates when indicated. An amplitude shift between repeat measurements in the displacement experiments was occasionally observed due to variations in the protein preparations. If that was the case, the “active” protein concentration was back‐calculated according to the quadratic equation from the saturation curves performed in parallel. By comparing the active protein concentrations in the complex between different protein preparations, the amplitude was normalised.
# MAP1LC3A [2] = molecular target: T2, MAP1LC3A (Homo sapiens, UniProt Q9H492); experiment: FP displacement assay, MAP1LC3A; format: binding; conditions: for IC50: Fig 4B, MAP1LC3A ATG8, FP displacement, technical triplicates, read-out: IC50 values of displacement curves, with SEM; for Kd: read-out: KD values ± SEM
# T2 construct: GST (cleaved yes); made in house; host or cells: Escherichia coli BL21-Gold(DE3)
# MAP1LC3B [3] = molecular target: T3, MAP1LC3B (Homo sapiens, UniProt Q9GZQ8); experiment: FP displacement assay, MAP1LC3B; format: binding; conditions: read-out: KD values ± SEM
# T3 construct: GST (cleaved yes); made in house; host or cells: Escherichia coli BL21-Gold(DE3)
# Method: as §1, §2
# GABARAPL2 [4] = molecular target: T1, GABARAPL2; experiment: Phosphomimetic ProP-PD selection, GABARAPL2; conditions: phosphomimetic enrichment score of the wild-type/phosphomimetic (E) pair at the phosphosite, PM_HD2 phage selection; positive = phosphomimetic enhances binding; P-value in brackets not taken
# Method: (§3) Selections using the PM_HD2 phage library were performed as described previously with minor modification to the original protocol. The corresponding tag protein (either GST or MBP) was first used during negative selections. Selections were run for 4 days. • Bait and tag proteins (10–15 μg in 100 μl PBS) were immobilised in 96‐well MaxiSorb plate (NUNC) o.n. at 4°C. • Escherichia coli OmniMax bacteria were grown in 2YT medium supplemented with tetracycline (100 μg/ml) at 37°C and 200 rpm. • Plates with immobilised bait/tag proteins were blocked with 0.5% BSA in PBS for 1 h at 4°C. • Phage library (10 μl/well) was prepared by diluting 10× with PBS and adding one‐fourth of the volume of PEG/NaCl. For phage precipitation, prepared library was incubated for 10 min on ice followed by centrifugation for 10 min at 10,000 × g at 4°C. […]
# (§4) Based on the results from phage pool ELISAs, samples from selection Day 3 and 4 were selected for NGS, as described previously (Benz et al, [2022]). • Peptide coding regions were amplified and dual‐barcoded by PCR. […] From the columns, samples were eluted with 30 μl TE (10 mM Tris–HCl, 1 mM EDTA. pH 7.5) buffer and quantified with Quant‐iT PicoGreen dsDNA Assay Kit. • Samples were sequenced on MiSeq (MSC 2.5.0.5/RTA 1.18.54) with a 151 nt (Read1) setup using “Version3” chemistry. […]
# MAP1LC3A [5] = molecular target: T2, MAP1LC3A; experiment: Phosphomimetic ProP-PD selection, MAP1LC3A; conditions: phosphomimetic enrichment score of the wild-type/phosphomimetic (E) pair at the phosphosite, PM_HD2 phage selection; positive = phosphomimetic enhances binding; P-value in brackets not taken
# Method: as §3, §4
# MAP1LC3B [6] = molecular target: T3, MAP1LC3B; experiment: Phosphomimetic ProP-PD selection, MAP1LC3B; conditions: phosphomimetic enrichment score of the wild-type/phosphomimetic (E) pair at the phosphosite, PM_HD2 phage selection; positive = phosphomimetic enhances binding; P-value in brackets not taken
# Method: as §3, §4
# TSG101 UEV [7] = molecular target: T4, TSG101 UEV (Homo sapiens, UniProt Q99816); experiment: FP displacement assay, TSG101 UEV; format: binding; conditions: for IC50: read-out: IC50 values of displacement curves, with SEM; for Kd: read-out: KD values ± SEM
# T4 construct: TSG101_UEV__Q99816_1_145; made in house; host or cells: Escherichia coli BL21-Gold(DE3)
# T4 sequence (Q99816 1-145): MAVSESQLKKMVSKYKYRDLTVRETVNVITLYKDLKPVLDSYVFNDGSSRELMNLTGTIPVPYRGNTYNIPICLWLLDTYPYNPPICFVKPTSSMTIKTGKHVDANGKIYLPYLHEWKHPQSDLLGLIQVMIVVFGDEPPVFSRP
# Method: as §1, §2
# TSG101 UEV [8] = molecular target: T4, TSG101 UEV; experiment: Phosphomimetic ProP-PD selection, TSG101 UEV; conditions: phosphomimetic enrichment score of the wild-type/phosphomimetic (E) pair at the phosphosite, PM_HD2 phage selection; positive = phosphomimetic enhances binding; P-value in brackets not taken
# Method: as §3, §4
# [9] = Fig 4B, TSG101 UEV, technical triplicates
# [10] = probe FITC-HIV2_Gag 5 nM, 50 mM sodium phosphate pH 7.4, room temperature, at least three technical replicates
# T1 sequence (P60520 2-115): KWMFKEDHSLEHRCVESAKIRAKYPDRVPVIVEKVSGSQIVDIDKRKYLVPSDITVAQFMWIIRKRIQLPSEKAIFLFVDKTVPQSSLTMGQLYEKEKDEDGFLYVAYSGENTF
Molecule,Kd (GABARAPL2 [1]),Kd (MAP1LC3B [3]),PES (GABARAPL2 [4]),PES (MAP1LC3A [5]),PES (MAP1LC3B [6]),PES (TSG101 UEV [8]),also measured
CC(=O)N[C@@H](Cc1ccc(O)cc1)C(=O)N[C@@H](CCCCN)C(=O)N[C@@H](CCCCN)C(=O)N[C@@H](CCC(N)=O)C(=O)N[C@@H](CC(C)C)C(=O)N[C@@H](CCCCN)C(=O)N[C@@H](CCCNC(=N)N)C(=O)N[C@@H](Cc1ccccc1)C(=O)N[C@@H](CCC(=O)O)C(=O)N[C@H](C(=O)N[C@@H](CCC(=O)O)C(=O)N[C@@H](CCC(=O)O)C(=O)N[C@@H](Cc1ccccc1)C(=O)N[C@H](C(=O)N[C@@H](CC(C)C)C(=O)N[C@@H](CC(C)C)C(=O)O)C(C)C)[C@@H](C)O [ATG4C444–458 E] (Ac-YKKQLKRFETEEFVLL-OH),1.8 ± 0.2 µM,4.6 ± 0.5 µM,4.3 (0.0025),2.3 (0.015),6 (0.00063),–,IC50 (MAP1LC3A [2]): 11 ± 1 µM; Kd (MAP1LC3A [2]): 3.1 ± 0.2 µM
CC(=O)N[C@@H](C)C(=O)N[C@@H](CC(N)=O)C(=O)N[C@@H](CO)C(=O)N[C@@H](Cc1c[nH]c2ccccc12)C(=O)N[C@@H](CCC(N)=O)C(=O)N[C@@H](CC(C)C)C(=O)N[C@H](C(=O)N[C@@H](CCC(=O)O)C(=O)N[C@@H](CCC(=O)O)C(=O)N1CCC[C@H]1C(=O)N[C@@H](CCC(=O)O)C(=O)N[C@@H](CCCCN)C(=O)N[C@@H](CCCNC(=N)N)C(=O)N[C@@H](CCCCN)C(=O)N[C@@H](CCC(=O)O)C(=O)N[C@@H](CCC(=O)O)C(N)=O)C(C)C [DLGAP4_907–922 E] (Ac-ANSWQLVEEPEKRKEE-NH2),260 ± 25 µM,–,−3.9 (0.00047),–,–,–,–
CSCC[C@H](NC(=O)[C@@H]1CCCN1C(=O)[C@H](CCC(=O)O)NC(=O)[C@H](CC(C)C)NC(=O)[C@@H]1CCCN1C(=O)[C@H](C)NC(=O)[C@@H](NC(=O)[C@@H]1CCCN1C(=O)[C@H](CO)NC(=O)[C@H](CO)NC(=O)[C@H](C)NC(=O)CNC(=O)[C@H](CC(N)=O)NC(=O)[C@H](Cc1ccc(O)cc1)NC(C)=O)[C@@H](C)O)C(=O)N[C@@H](CO)C(=O)N1CCC[C@H]1C(N)=O [GJA1_269–283 E] (Ac-YNGASSPTAPLEPMSP-NH2),–,–,–,–,–,6 (0.0013),IC50 (TSG101 UEV [7]; [9]): 232 ± 13 µM; Kd (TSG101 UEV [7]; [10]): 115 ± 4 µM
CC(=O)N[C@@H](Cc1c[nH]cn1)C(=O)N[C@@H](CO)C(=O)NCC(=O)N[C@@H](CC(N)=O)C(=O)N[C@H](C(=O)N[C@@H](CCC(=O)O)C(=O)N1CCC[C@H]1C(=O)N[C@H](C(=O)N[C@@H](C)C(=O)N1CCC[C@H]1C(=O)N1CCC[C@H]1C(=O)N[C@@H](Cc1ccc(O)cc1)C(=O)N[C@@H](CC(C)C)C(=O)N[C@@H](CCC(N)=O)C(=O)N[C@@H](CCC(=O)O)C(=O)N[C@@H](CO)C(N)=O)[C@@H](C)O)C(C)C [PIP4P2_17–32 E] (Ac-HSGNVEPTAPPYLQES-NH2),–,–,–,–,–,−14 (0.0000002),IC50 (TSG101 UEV [7]; [9]): 37 ± 8 µM; Kd (TSG101 UEV [7]; [10]): 18 ± 2 µM
CC(=O)N[C@@H](CC(C)C)C(=O)N[C@@H](CCC(=O)O)C(=O)N[C@@H](CC(=O)O)C(=O)N[C@@H](CC(=O)O)C(=O)N[C@@H](CCC(=O)O)C(=O)N[C@@H](CCC(N)=O)C(=O)N[C@@H](Cc1ccccc1)C(=O)N[C@H](C(=O)N[C@@H](CCC(=O)O)C(=O)N[C@@H](CC(C)C)C(=O)N[C@@H](Cc1ccc(O)cc1)C(=O)NCC(=O)N[C@H](C(=O)N[C@@H](CCC(=O)O)C(=O)N[C@@H](CCC(=O)O)C(=O)N[C@@H](Cc1ccc(O)cc1)C(N)=O)[C@@H](C)O)C(C)C [TBK1_164–179 E],12.4 ± 0.6 µM,2.1 ± 0.2 µM,1 (0.11),3.2 (0.0061),5.1 (0.00047),–,–
CC(=O)N[C@@H](CCC(N)=O)C(=O)N[C@@H](CC(N)=O)C(=O)N[C@@H](CC(C)C)C(=O)N[C@@H](CO)C(=O)N[C@@H](CCCNC(=N)N)C(=O)N[C@@H](CCC(=O)O)C(=O)N[C@@H](Cc1c[nH]c2ccccc12)C(=O)N[C@@H](Cc1c[nH]cn1)C(=O)N[C@@H](CC(=O)O)C(=O)N[C@H](C(=O)N[C@@H](CCC(N)=O)C(=O)N[C@H](C(=O)N[C@@H](CO)C(=O)N[C@@H](CO)C(=O)N[C@@H](C)C(=O)N[C@@H](Cc1ccc(O)cc1)C(N)=O)C(C)C)C(C)C [TPD52L2_91–106 E] (Ac-QNLSREWHDVQVSSAY-NH2),–,225 ± 17 µM,–,14 (0.000000099),3 (0.012),–,IC50 (MAP1LC3A [2]): 223 ± 12 µM; Kd (MAP1LC3A [2]): 78 ± 3 µM
"H3COC-QSIAREPS(pS/E)APSIPTPY-NH2 [PDCD6IP711–725 E, phosphomimetic (E) PDCD6IP 711-725 peptide]",–,–,–,–,–,−15 (0.00000004),"IC50 values of displacement curves, with SEM (TSG101 UEV [7]; [9]): n.b.; KD values ± SEM (TSG101 UEV [7]; [10]): n.b."

# Reference: PMC10333884, “Large‐scale phosphomimetic screening identifies phospho‐modulated motif‐based protein interactions” (Molecular Systems Biology, 2023)
